Measured values taken from patent US6803203B1, “DNA-PK assay” (Brookhaven Science Associates, priority 1993, dated 2004).
No end group written: not given here.

What was measured:
[1] = biological target: T1, DNA-PK (Homo sapiens, UniProt P78527); assay: Phosphorylation of synthetic peptides in crude cell extracts (HeLa, T98G); type: biochemical; conditions: for PO4 incorporated + DNA: + calf thymus DNA 10 μg/ml; for PO4 incorporated + DNA / PO4 incorporated − DNA: peptide 200 μM, 10 min 30° C.; for PO4 incorporated − DNA: without DNA
T1 construct: DNA-PK was purified from HeLa cells; endogenous in cells; host or cells: HeLa S3 cells; the endogenous enzyme was purified in house by chromatography
Experimental: (§1) To examine cells for DNA-PK content, extracts from HeLa, T98G human glioblastoma, and mouse L 929 cells were prepared by freeze-thaw lysis of cells harvested from five nearly confluent 9-cm-diameter plates as described in Example 1 and by Lees-Miller, et al. J. Biol. Chem., 264:2431-2437 (1989). T98G (ATCC CRL 1690) is a human glioblastoma cell line; L-929 (ATCC CCL 1) was derived from connective tissue of the NCTC 2071 mouse. Based on earlier work with natural protein substrates, it was expected that extracts of HeLa and T98G cells would contain a significant amount of DNA-PK activity while the extracts of mouse L 929 would contain little, if any, DNA-PK activity. Lysates in low-salt buffer were centrifuged at 10,000×g, to give a supernatant fraction (designated S10) and pellets (designated P10). The pellets were washed by resuspension in a high salt buffer (0.5 M KCl, 25 mM N-2-hydroxyethylpiperazine-N′-2-ethanesulfonic acid (HEPES; pH 7.5), 10 mM MgCl2, 1 mM dithiothreitol) and were sonicated. The sonicated suspension was centrifuged at 10,000×g for 10 min to give a second supernatant fraction (designated P10S), which was diluted with buffer lacking KCl to give a volume equal to that of the original supernatant (S10). Protein concentrations, determined using the Bio-Rad dye-binding assay, were as follows: HeLa S10, 3 mg/ml; HeLa P10S, 1 mg/ml; T98G S10, 3.5 mg/ml;,T98G P10S, 1 mg/ml; L-929 S10, 1 mg/ml; and L-929 P10S, 0.3 mg/ml. These extracts were assayed for the ability to phosphorylate (SEQ ID NOS: 11 and 20) with and without added calf thymus DNA.

[2] = test system: DNA-PK; assay: Phosphorylation of synthetic peptides in crude cell extracts (L 929); type: biochemical, mouse; conditions: peptide 200 μM, 10 min 30° C.
Experimental: as §1

[3] = test system: DNA-PK; assay: DNA-PK activity in extracts of mouse cell lines; type: biochemical; conditions: peptide 0.2 mM; for Specific Activity + DNA: + calf thymus DNA 10 μg/ml; for Specific Activity − DNA: no added DNA
Experimental: Extracts of additional primate and rodent cells were tested for the presence of DNA-PK activity in accordance with the method of the present invention. The DNA-PK activity was determined using the methods described in Examples 1, 4 and 5 for seven human cell lines, two African green monkey kidney lines, and six rodent cell lines.
Extracts were prepared essentially as described in Example 10. Cells were lysed by freezing and thawing in hypotonic buffer; soluble (S10) “cytoplasmic” and insoluble in (P10) “nuclear” fractions were made by centrifuging lysates at 10,000×g for 10 min. The insoluble fraction was extracted with buffer containing 0.5 M KCl, which releases any DNA-PK that is bound to DNA. After centrifugation of the salt-washed pellet fraction, which removed the remaining insoluble material, the salt extract (P10S) was diluted and assayed as previously described.
Protein concentrations, determined using the Bio-Rad dye binding assay, were between 0.3 and 6 mg/ml. Extracts were incubated at 30° C. for 10 min with each peptide at 0.2 mM in the absence of added DNA (−DNA) or with 10 μg/ml calf thymus DNA (+DNA). After incubation the reaction mixtures were acidified with an equal volume of 30% acetic acid and spotted on to Whatman P-81 phosphocellulose paper (Whatman, Inc., Clifton, N.J.). The filters then were washed extensively in 15% acetic acid before the adsorbed radioactivity was quantitated as described in Example 5.
The amount of phosphate incorporated was calculated from the specific activity of the ATP. The rate of phosphate incorporation into the Ser-Gln-Glu peptide (Table 1) (SEQ ID NO: 11) in the presence of calf thymus DNA was approximately linear throughout the 10 minute reaction incubation period. Parallel assays were performed without added peptide, and these background values were subtracted to produce the activities that are shown in Table 3. Background values varied but, in all cases, were less than 0.2 nmol/min/mg (a few percent of the activity present in human cells). The specific activities were calculated from the total activity in the two fractions divided by the total protein in the two fractions. The percent of total DNA-PK activity in the S10 and P10S fractions was determined with peptide (SEQ ID NO: 11) in the presence of added calf thymus DNA. Extracts without substantial DNA-PK activity were examined for their ability to inhibit purified DNA-PK. Inhibitory activity was not detected.

PO4 incorporated + DNA ([1]; HeLa, P10S): 0.0 nmol/min/ml of extract | PO4 incorporated − DNA ([1]; HeLa, P10S): 0.0 nmol/min/ml of extract | PO4 incorporated + DNA ([1]; HeLa, S10): 0.3 nmol/min/ml of extract | PO4 incorporated − DNA ([1]; HeLa, S10): 0.0 nmol/min/ml of extract | PO4 incorporated + DNA ([1]; T98G, P10S): 0.0 nmol/min/ml of extract | PO4 incorporated − DNA ([1]; T98G, P10S): 0.0 nmol/min/ml of extract | PO4 incorporated + DNA ([1]; T98G, S10): 0.04 nmol/min/ml of extract | PO4 incorporated − DNA ([1]; T98G, S10): 0.02 nmol/min/ml of extract | phosphorylation by crude cell extracts (in words) ([1]; all extracts of Table 2 (HeLa, T98G, L 929)): poorly phosphorylated, if at all
Sequence: EPPLSEQAFADLWKK [SEQ ID NO: 20]
PO4 incorporated + DNA ([2]; P10S, + calf thymus DNA 10 μg/ml): 0.0 nmol/min/ml of extract | PO4 incorporated − DNA ([2]; P10S, without DNA): 0.0 nmol/min/ml of extract | PO4 incorporated + DNA ([2]; S10, + calf thymus DNA 10 μg/ml): 0.0 nmol/min/ml of extract | PO4 incorporated − DNA ([2]; S10, without DNA): 0.0 nmol/min/ml of extract | Specific Activity + DNA ([3]; Mouse L-929, P10S): 0.0 nmol PO4/min/mg protein | Specific Activity − DNA ([3]; Mouse L-929, P10S): 0.0 nmol PO4/min/mg protein | Specific Activity + DNA ([3]; Mouse L-929, S10): 0.0 nmol PO4/min/mg protein | Specific Activity − DNA ([3]; Mouse L-929, S10): 0.0 nmol PO4/min/mg protein | Specific Activity + DNA ([3]; Mouse SV-Balb/c, P10S): 0.04 nmol PO4/min/mg protein | Specific Activity − DNA ([3]; Mouse SV-Balb/c, P10S): 0.0 nmol PO4/min/mg protein | Specific Activity + DNA ([3]; Mouse SV-Balb/c, S10): 0.06 nmol PO4/min/mg protein | Specific Activity − DNA ([3]; Mouse SV-Balb/c, S10): 0.0 nmol PO4/min/mg protein
